Assay results published in ChEMBL document CHEMBL1129394, “Studies on selectin blocker. 3. Investigation of the carbohydrate ligand sialyl Lewis X recognition site of P-selectin” (J Med Chem, 1996).

Target: T1, P-selectin (Homo sapiens, UniProt P16109)
T1 sequence (P16109 whole entry): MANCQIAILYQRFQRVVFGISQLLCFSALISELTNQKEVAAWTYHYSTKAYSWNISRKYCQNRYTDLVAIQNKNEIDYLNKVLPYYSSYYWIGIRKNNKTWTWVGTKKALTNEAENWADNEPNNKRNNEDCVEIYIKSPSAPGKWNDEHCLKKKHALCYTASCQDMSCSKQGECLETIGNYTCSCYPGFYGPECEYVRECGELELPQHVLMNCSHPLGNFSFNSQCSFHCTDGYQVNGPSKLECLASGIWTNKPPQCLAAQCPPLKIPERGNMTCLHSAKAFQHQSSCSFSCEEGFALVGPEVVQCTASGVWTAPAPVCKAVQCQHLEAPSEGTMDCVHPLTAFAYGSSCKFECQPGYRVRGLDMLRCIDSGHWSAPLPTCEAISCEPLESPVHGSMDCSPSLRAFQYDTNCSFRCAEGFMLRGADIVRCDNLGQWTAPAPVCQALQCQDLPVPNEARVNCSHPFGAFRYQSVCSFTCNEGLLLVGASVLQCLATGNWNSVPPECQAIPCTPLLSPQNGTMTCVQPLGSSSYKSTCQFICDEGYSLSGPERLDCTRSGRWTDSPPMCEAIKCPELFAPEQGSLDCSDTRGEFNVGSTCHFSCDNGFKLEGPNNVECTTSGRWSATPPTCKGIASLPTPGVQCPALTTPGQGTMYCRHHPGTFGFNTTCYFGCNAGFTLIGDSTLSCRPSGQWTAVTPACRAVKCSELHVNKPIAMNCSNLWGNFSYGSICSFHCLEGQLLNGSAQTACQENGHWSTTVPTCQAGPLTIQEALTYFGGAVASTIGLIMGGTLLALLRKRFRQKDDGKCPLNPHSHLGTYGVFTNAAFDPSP
Assay: Blocking activity on Selectin P ligand binding

- IC50: > 1000 µM
SMILES: CC(=O)N[C@H]1[C@H]([C@H](O)[C@H](O)CO)O[C@@](O[C@H]2[C@@H](O)[C@@H](CO)O[C@@H](O[C@@H]([C@H](O[C@@H]3O[C@@H](C)[C@@H](O)[C@@H](O)[C@@H]3O)[C@H](C=O)NC(C)=O)[C@H](O)CO)[C@@H]2O)(C(=O)O)C[C@@H]1O [SIALYL LEWIS X]
